Assay results published in the NIST ThermoML archive (doi:10.1016/j.tca.2012.08.011).

What was measured:
[1] = xn = mol fraction of the nth substance listed; conditions: 101 kPa, Liquid, x2 = 0; for speed of sound: Linear variable-path acoustic interferometer; for mass density: Vibrating tube method
[2] = 101 kPa, Liquid; for speed of sound: Linear variable-path acoustic interferometer; for mass density: Vibrating tube method

c1ccccc1 [benzene] + NC1CCCCC1
[1]
Conditions	mass density [kg/m3]	speed of sound [m/s]
293.15 K	878.95	1322.7
298.15 K	873.61	1299.3
303.15 K	868.25	1276
308.15 K	862.88	1252.8
313.15 K	857.48	1229.8
318.15 K	852.08	1207
323.15 K	846.65	1184.5

C1CCCCC1 [cyclohexane] + NC1CCCCC1
[1]
Conditions	mass density [kg/m3]	speed of sound [m/s]
293.15 K	778.55	1278.6
298.15 K	773.84	1253.9
303.15 K	769.11	1229.3
308.15 K	764.35	1205.1
313.15 K	759.56	1181
318.15 K	754.74	1157.3
323.15 K	749.89	1133.7

c1ccccc1 [benzene]
[2]
Conditions	mass density [kg/m3]	speed of sound [m/s]
293.15 K	878.95	1322.7
298.15 K	873.61	1299.3
303.15 K	868.25	1276
308.15 K	862.88	1252.8
313.15 K	857.48	1229.8
318.15 K	852.08	1207
323.15 K	846.65	1184.5

C1CCCCC1 [cyclohexane]
[2]
Conditions	mass density [kg/m3]	speed of sound [m/s]
293.15 K	778.55	1278.6
298.15 K	773.84	1253.9
303.15 K	769.11	1229.3
308.15 K	764.35	1205.1
313.15 K	759.56	1181
318.15 K	754.74	1157.3
323.15 K	749.89	1133.7

NC1CCCCC1 [cyclohexylamine]
[2]
Conditions	mass density [kg/m3]	speed of sound [m/s]
293.15 K	867.39	1430.5
298.15 K	862.85	1408.8
303.15 K	858.31	1387.3
308.15 K	853.76	1366
313.15 K	849.23	1344.5
318.15 K	844.68	1323.1
323.15 K	840.14	1301.8
